Legend:
velvetleaf = assay: Test B pre-/postemergence herbicide test; format: in vivo, Abutilon theophrasti; conditions: for Velvetleaf plant response rating: scale 0 (no effect) to 100 (complete control)
Outline: (§1)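 Flooded paddy rice and barnyardgrass were treated at the 2-leaf stage; upland plantings received compound either on sown seed or on 1- to 4-leaf seedlings. All were kept 13–15 days in a greenhouse and scored visually, 0–100, relative to untreated plants.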

barnyardgrass [1] = assay: Test C flooded paddy test; format: in vivo, Echinochloa crus-galli
Outline: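 After a postemergence application at 1 to 4 leaves (plants 2–18 cm high), or at 2 leaves for barnyardgrass in flooded paddy, plants stayed in the greenhouse for 12 to 14 days. Damage was then judged visually relative to control plants, with 100 indicating complete control.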

blackgrass = assay: Test B postemergence herbicide test; format: in vivo, Alopecurus myosuroides; conditions: scale 0 (no effect) to 100 (complete control)
Outline: (§2)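 Treated at 2-leaf (paddy) or 1–4-leaf, 2–18 cm (postemergence); greenhouse 13–15 d; visual score vs control, 0 none to 100 complete control; dash = not tested.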

rice [2] = assay: Test B flooded paddy test; format: in vivo, Oryza sativa; conditions: 1000 g ai/ha, scale 0 to 100 (0 no effect, 100 complete control)
Outline: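 After treating 2-leaf paddy plants or 2–18 cm postemergence plants (1 to 4 leaves) with formulated chemical, researchers kept them in a greenhouse for 13–15 days. Effects were judged visually versus controls: 0 indicates none, 100 total control.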

lambsquarters = assay: Test B pre-/postemergence herbicide test; format: in vivo, Chenopodium album; conditions: for Lambsquarters plant response rating: scale 0 (no effect) to 100 (complete control)
Outline: as §1

[3] = tested on: smallflower umbrella sedge; assay: Test C flooded paddy test; format: in vivo, Cyperus difformis
ducksalad [4] = assay: Test C flooded paddy test; format: in vivo, Heteranthera limosa
morningglory = assay: Test B pre-/postemergence herbicide test; format: in vivo, Ipomoea coccinea; conditions: for Morningglory plant response rating: scale 0 (no effect) to 100 (complete control)
Outline: (§3)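 Herbicidal effect was judged by eye on a 0–100 scale after plants stood 13 to 15 days in the greenhouse following pre- or postemergence treatment with surfactant-containing formulations.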

barnyardgrass [5] = assay: Test B pre-/postemergence herbicide test; format: in vivo, Echinochloa crus-galli; conditions: for Barnyardgrass plant response rating: scale 0 (no effect) to 100 (complete control)
Outline: as §3

wild oat = assay: Test B postemergence herbicide test; format: in vivo, Avena fatua; conditions: scale 0 (no effect) to 100 (complete control)
Outline: as §2

giant foxtail = assay: Test B pre-/postemergence herbicide test; format: in vivo, Setaria faberi; conditions: for Foxtail, Giant plant response rating: scale 0 (no effect) to 100 (complete control)
Outline: as §1

[6] = tested on: small flower umbrella sedge; assay: Test B flooded paddy test; format: in vivo, Cyperus difformis; conditions: 1000 g ai/ha, scale 0 to 100 (0 no effect, 100 complete control)
Outline: as §2

rice [7] = assay: Test C flooded paddy test; format: in vivo, Oryza sativa
Outline: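 Plants were grown to the 1- to 4-leaf stage (2–18 cm) and then treated postemergence, or grown to the 2-leaf stage for the flooded paddy test. They were held in a greenhouse for 12 to 14 days and then scored by eye against controls, where 0 is no effect and 100 is complete control.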

corn = assay: Test B pre-/postemergence herbicide test; format: in vivo, Zea mays; conditions: for Corn plant response rating: scale 0 (no effect) to 100 (complete control)
Outline: as §1

wheat = assay: Test B postemergence herbicide test; format: in vivo, Triticum aestivum; design: key to Wheat plant response rating: 0 = no effect, 100 = complete control
Outline: as §2

cocklebur = assay: Test B pre-/postemergence herbicide test; format: in vivo, Xanthium strumarium; conditions: for Cocklebur plant response rating: scale 0 (no effect) to 100 (complete control)
Outline: as §3

ducksalad [8] = assay: Test B flooded paddy test; format: in vivo, Heteranthera limosa; conditions: 1000 g ai/ha, scale 0 to 100 (0 no effect, 100 complete control)
Outline: as §2

large crabgrass = assay: Test B pre-/postemergence herbicide test; format: in vivo, Digitaria sanguinalis; conditions: for Crabgrass, Large plant response rating: scale 0 (no effect) to 100 (complete control)
Outline: as §1

pigweed = assay: Test B pre-/postemergence herbicide test; format: in vivo, Amaranthus retroflexus; conditions: for Pigweed plant response rating: scale 0 (no effect) to 100 (complete control)
Outline: as §1

Surinam grass = assay: Test B pre-/postemergence herbicide test; format: in vivo, Urochloa decumbens; conditions: for Surinam Grass plant response rating: scale 0 (no effect) to 100 (complete control)
Outline: as §1

barnyardgrass [9] = assay: Test B flooded paddy test; format: in vivo, Echinochloa crus-galli; conditions: 1000 g ai/ha, scale 0 to 100 (0 no effect, 100 complete control)
Outline: as §2

[10] = 125 g ai/ha, 0 is no effect, 100 is complete control, preemergence
[11] = 125 g ai/ha, visual rating, postemergence
[12] = 125 g ai/ha, scale 0 to 100 (0 no effect, 100 complete control)
[13] = 250 g ai/ha, scale of 0 to 100, 0 is no effect, 100 is complete control
[14] = 500 g ai/ha, visual rating after 12 to 14 days, scale 0 to 100 (0 no effect, 100 complete control)

C#CCNC(=O)c1cccc(NC(=O)c2nn(C(C)(C)C)nc2C)c1 [Compound 394]
Plant response rating (0 to 100 scale), Velvetleaf (velvetleaf; [10]): 0 | Velvetleaf plant response rating (velvetleaf; [11]): 10 | Velvetleaf plant response rating (velvetleaf; Postemergence, 500 g ai/ha): 30 | Barnyardgrass plant response rating (barnyardgrass [1]; 62 g ai/ha, scale 0 to 100 (0 no effect, 100 complete control)): 0 | Barnyardgrass plant response rating (barnyardgrass [1]; [12]): 0 | Barnyardgrass plant response rating (barnyardgrass [1]; [13]): 0 | Plant response rating, Barnyardgrass (barnyardgrass [1]; [14]): 20 | Blackgrass plant response rating (blackgrass; [11]): 0 | Blackgrass plant response rating (blackgrass; Postemergence, 500 g ai/ha): 20 | Rice plant response rating (rice [2]): 60 | Plant response rating (0 to 100 scale), Lambsquarters (lambsquarters; [10]): 10 | Lambsquarters plant response rating (lambsquarters; [11]): 30 | Lambsquarters plant response rating (lambsquarters; Postemergence, 500 g ai/ha): 60 | Sedge, Umbrella plant response rating ([3]; 62 g ai/ha, scale 0 to 100): 0 | Sedge, Umbrella plant response rating [3, 12]: 35 | Sedge, Umbrella plant response rating [3, 13]: 60 | Plant response rating, Sedge, Umbrella [3, 14]: 70 | Ducksalad plant response rating (ducksalad [4]; 62 g ai/ha, scale 0 to 100): 0 | Ducksalad plant response rating (ducksalad [4]; [12]): 0 | Ducksalad plant response rating (ducksalad [4]; [13]): 10 | Plant response rating, Ducksalad (ducksalad [4]; [14]): 45 | Plant response rating (0 to 100 scale), Morningglory (morningglory; [10]): 0 | Morningglory plant response rating (morningglory; [11]): 20 | Morningglory plant response rating (morningglory; Postemergence, 500 g ai/ha): 20 | Plant response rating (0 to 100 scale), Barnyardgrass (barnyardgrass [5]; [10]): 30 | Barnyardgrass plant response rating (barnyardgrass [5]; [11]): 0 | Barnyardgrass plant response rating (barnyardgrass [5]; Postemergence, 500 g ai/ha): 10 | Oat, Wild plant response rating (wild oat; [11]): 0 | Oat, Wild plant response rating (wild oat; Postemergence, 500 g ai/ha): 0 | Plant response rating (0 to 100 scale), Foxtail, Giant (giant foxtail; [10]): 10 | Foxtail, Giant plant response rating (giant foxtail; [11]): 20 | Foxtail, Giant plant response rating (giant foxtail; Postemergence, 500 g ai/ha): 30 | Sedge, Umbrella plant response rating [6]: 90 | Rice plant response rating (rice [7]; 62 g ai/ha, scale 0 to 100): 0 | Rice plant response rating (rice [7]; [12]): 0 | Rice plant response rating (rice [7]; [13]): 45 | Plant response rating, Rice (rice [7]; [14]): 60 | Plant response rating (0 to 100 scale), Corn (corn; [10]): 0 | Corn plant response rating (corn; [11]): 0 | Corn plant response rating (corn; Postemergence, 500 g ai/ha): 10 | Wheat plant response rating (wheat; 125 g ai/ha, visual rating, scale 0 (no effect) to 100 (complete control), postemergence): 0 | Wheat plant response rating (wheat; 500 g ai/ha, scale 0 to 100, 0 no effect, 100 complete control, preemergence): 20 | Wheat plant response rating (wheat; Postemergence, 500 g ai/ha, scale 0 (no effect) to 100 (complete control)): 0 | Plant response rating (0 to 100 scale), Cocklebur (cocklebur; [10]): 20 | Cocklebur plant response rating (cocklebur; [11]): 10 | Cocklebur plant response rating (cocklebur; Postemergence, 500 g ai/ha): 20 | Ducksalad plant response rating (ducksalad [8]): 80 | Plant response rating (0 to 100 scale), Crabgrass, Large (large crabgrass; [10]): 40 | Crabgrass, Large plant response rating (large crabgrass; [11]): 10 | Crabgrass, Large plant response rating (large crabgrass; Postemergence, 500 g ai/ha): 20 | Plant response rating (0 to 100 scale), Pigweed (pigweed; [10]): 10 | Pigweed plant response rating (pigweed; [11]): 30 | Pigweed plant response rating (pigweed; Postemergence, 500 g ai/ha): 60 | Plant response rating (0 to 100 scale), Surinam Grass (Surinam grass; [10]): 10 | Surinam Grass plant response rating (Surinam grass; [11]): 10 | Surinam Grass plant response rating (Surinam grass; Postemergence, 500 g ai/ha): 20 | Barnyardgrass plant response rating (barnyardgrass [9]): 70

— patent publication US20060069132A1, “Azolecarboxamide herbicides” (priority 2004, published 2006)
